As usually defined, the IC50 is the point on the concentration scale where inhibition reaches its midpoint.

This is an account of results in patent US9181258B2, “Substituted 3,4-dihydropyrrolo[1,2-a]pyrazin-1(2H)-ones as protein kinase inhibitors” (NERVIANO MEDICAL SCIENCES S.R.L., priority 2011, dated 2015).

The subject of one assay is MV-4-11 cells. Briefly: In vitro cell proliferation assay (CellTiter-Glo), MV-4-11. The class given is cell-based. The settings on record: Homo sapiens, MV4-11, 72 hours. Here is the method: (§1) In Vitro Cell Proliferation Assay
MV-4-11 (biphenotypic B myelomonocytic leukemia) cell line was obtained from ATCC.
Media for MV-4-11 cell line contained RPMI 1640 or EMEM plus 2 mM Glutamine and 10% Fetal bovine serum.
(§2) BaF3-PIM1 and MV-4-11 cells were seeded at 125 cells/well and 1250 cells/well respectively in a 384-well white plates in complete medium and treated with compounds dissolved in 0.1% DMSO, 24 h after seeding.
(§3) The cells were incubated at 37° C. and 5% CO2 and after 72 hours the plates were processed using CellTiter-Glo assay (Promega) following the manufacturer's instruction.
(§4) CellTiter-Glo was a homogenous method based on the quantification of the ATP present, an indicator of metabolitically active cells. ATP was quantified using a system based on luciferase and D-luciferin resulting into light generation. The luminescent signal was proportional to the number of cells present in culture.
(§5) Briefly 25 μl/well reagent solution were added to each wells and after 5 minutes shacking microplates were red by Envision (PerkinElmer) luminometer. The luminescent signal was proportional to the number of cells present in culture.
(§6) Inhibitory activity was evaluated comparing treated versus control data using Assay Explorer (MDL) program. IC50 was calculated using sigmoidal interpolation curve.

For the next assay, the system named is BaF3-PIM1 cells. Put plainly: In vitro cell proliferation assay (CellTiter-Glo), BaF3-PIM1. The class given is cell-based. The conditions noted are these: 72 hours. Here is the method: as §1, §2, §3, §4, §5, §6
In general terms: Cellular ATP, detected with luciferase, serves as a proxy for viable cell number.

The target of the next assay is human PIM1 (Homo sapiens (Human), UniProt P11309). Briefly: Biochemical assay for inhibitors of PIM1 kinase activity (trans-phosphorylation, Dowex technique). The settings on record: ATP 200 μM, Aktide 25 μM, enzyme 1 nM; read-out: PIM-1 IC50. How it is done:
Biochemical Assay for Inhibitors of PIM1 Kinase Activity
The inhibitory activity of putative kinase inhibitors and the potency of selected compounds were determined using a trans-phosphorylation assay.
Specific peptide or protein substrates were trans-phosphorylated by their specific ser-thr or tyr kinase in the presence of ATP traced with ^33P-γ-ATP, and in the presence of their own optimal buffer and cofactors.
At the end of the phosphorylation reaction, more than 98% unlabeled ATP and radioactive ATP were captured by an excess of the ion exchange dowex resin; the resin then settled down to the bottom of the reaction plate by gravity. Supernatant was subsequently withdrawn and transferred into a counting plate, then evaluated by β-counting.
Reagents/Assay Conditions i. Dowex Resin Preparation
500 g of wet resin (SIGMA, custom prepared resin DOWEX 1×8 200-400 mesh, 2.5 Kg) were weighed out and diluted to 2 L in 150 mM sodium formate, pH 3.00.
The resin was allowed to settle down (some hours) and then the supernatant was discarded.
After three washes as above over a couple of days, the resin was allowed to settle and two volumes (wrt the resin volume) of 150 mM sodium formate buffer were added.
The pH was then measured and should have been around 3.00.
The washed resin was stable for more than one week; the stock resin was kept at 4° C. before use.
The buffer for PIM1 assay was composed of HEPES 50 mM, at pH 7.5, with 10 mM MgCl2, 1 mM DTT, 3 μM NaVO3, and 0.2 mg/mL BSA.
Full-length human PIM1 was expressed and purified as described in Bullock A N, et al., J. Biol. Chem. 2005, 280, 41675-82.
1.7 μM PIM1 was incubated 1 h at 28° C. in the presence of 125 μM ATP.
ATP concentration: 200 μM; ^33P-γ-ATP: 6 nM; Enzyme concentration: 1 nM Substrate concentration Aktide (Chemical Abstract Service Registry Number 324029-01-8): 25 μM iv. Robotized Dowex Assay
The test mix consisted of:
1) 3× Enzyme mix (done in Kinase Buffer 3×), 5 μL/well
2) 3× substrate and ATP mix (done in ddH2O), together with ^33P-γ-ATP, 5 μL/well 3) 3× test compounds (diluted into ddH2O—3% DMSO)—5 μL/well See below for compound dilution and assay scheme […]
An automated station (Biomek FX, Beckman) was used for serial dilutions, producing 1:3 dilutions in 100% DMSO, from line A1 to A10, for all the compounds in the column.
Data were analyzed by an internally customized version of the “Assay Explorer” SW package, which provided sigmoidal fitting of the ten-dilution curves for IC50 determination in secondary assay/hit confirmation routines.

Another assay deals with human PIM2 (Homo sapiens (Human), UniProt Q9P1W9). Briefly: PIM2 kinase inhibition assay: Dowex technique. The class given is biochemical. The conditions noted are these: ATP 4 μM, Aktide 5 μM, enzyme 1.5 nM; read-out: PIM-2 IC50. How it is done:
Method for PIM2 Kinase Inhibition Assay: Dowex Technique
The buffer for PIM2 assay was composed of HEPES 50 mM, at pH 7.5, with 1 mM MgCl2, 1 mM DTT, 3 μM Na3VO4, and 0.2 mg/mL BSA.
Full-length human PIM2 was expressed and purified as described in Fedorov O, et al., PNAS 2007 104, 51, 20523-28. ii. Assay Conditions (Final Concentrations)
Enzyme concentration=1.5 nM; ATP=4 μM; ^33P-γ-ATP=1 nM
Aktide substrate (Chemical Abstract Service Registry Number 324029-01-8)=5 μM iii. Robotized Dowex Assay
See above: same procedure as described for PIM1.

Where a name gives a salt, the structure may show the parent alone.

Sequence of human PIM1 (P11309 whole entry): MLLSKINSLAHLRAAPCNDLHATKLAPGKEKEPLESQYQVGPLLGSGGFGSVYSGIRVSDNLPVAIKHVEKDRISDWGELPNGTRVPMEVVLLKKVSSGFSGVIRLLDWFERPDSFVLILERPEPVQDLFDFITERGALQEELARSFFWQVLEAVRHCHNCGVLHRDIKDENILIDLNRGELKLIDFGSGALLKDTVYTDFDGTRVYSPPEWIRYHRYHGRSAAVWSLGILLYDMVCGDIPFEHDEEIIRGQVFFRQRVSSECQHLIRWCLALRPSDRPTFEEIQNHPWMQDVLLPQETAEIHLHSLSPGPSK
Sequence of human PIM2 (Q9P1W9 whole entry): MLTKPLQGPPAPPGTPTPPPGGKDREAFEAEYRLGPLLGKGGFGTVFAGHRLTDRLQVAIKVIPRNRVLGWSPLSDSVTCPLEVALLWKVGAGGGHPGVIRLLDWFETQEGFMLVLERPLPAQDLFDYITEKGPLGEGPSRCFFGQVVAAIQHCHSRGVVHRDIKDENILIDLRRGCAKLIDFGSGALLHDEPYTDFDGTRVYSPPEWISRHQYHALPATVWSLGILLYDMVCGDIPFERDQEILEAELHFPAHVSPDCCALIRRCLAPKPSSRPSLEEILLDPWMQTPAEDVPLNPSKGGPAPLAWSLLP

Consider `NCCC1CNC(=O)c2cc(-c3cccc(OC(F)(F)F)c3)c(-c3ccccc3)n21` (stereo not shown) [Compound 28, 4-(2-aminoethyl)-6-phenyl-7-[3-(trifluoromethoxy)phenyl]-3,4-dihydropyrrolo[1,2-a]pyrazin-1(2H)-one hydrochloride], for which the IC50 was 1740 nM in the assay with MV-4-11 cells, 275 nM in the assay with BaF3-PIM1 cells, 7 nM at human PIM1 and 55 nM on human PIM2.

`NCCC1CNC(=O)c2cc(-c3cccc(OC(F)(F)F)c3)c(-c3ccsc3)n21` (stereo not shown) [Compound 29, 4-(2-aminoethyl)-6-(thiophen-3-yl)-7-[3-(trifluoromethoxy)phenyl]-3,4-dihydropyrrolo[1,2-a]pyrazin-1(2H)-one hydrochloride]: the IC50 was 2620 nM with MV-4-11 cells, 315 nM with BaF3-PIM1 cells, 19 nM on human PIM1 and 143 nM at human PIM2.

As to `Cc1cccc(-c2c(-c3cccc(OC(F)(F)F)c3)cc3n2C(CCN)CNC3=O)c1` (stereo not shown) [Compound 31, 4-(2-aminoethyl)-6-(3-methylphenyl)-7-[3-(trifluoromethoxy)phenyl]-3,4-dihydropyrrolo[1,2-a]pyrazin-1(2H)-one hydrochloride], the concentration for half-maximal inhibition (IC50) amounted to 2590 nM in the assay with MV-4-11 cells, 326 nM in the assay on BaF3-PIM1 cells, 23 nM on human PIM1 and 51 nM on human PIM2.

For the molecule `NCCC1CNC(=O)c2cc(-c3cccc(C(F)(F)F)c3)c(-c3ccsc3)n21` (stereo not shown) [Compound 40, 4-(2-aminoethyl)-6-(thiophen-3-yl)-7-[3-(trifluoromethyl)phenyl]-3,4-dihydropyrrolo[1,2-a]pyrazin-1(2H)-one hydrochloride], the IC50 in the assay with MV-4-11 cells was 5040 nM; in the assay with BaF3-PIM1 cells it was 340 nM; at human PIM1 it was 43 nM; on human PIM2 it was 155 nM.

Consider `Cc1cccc(-c2c(-c3ccnc(Cl)c3)cc3n2C(CCN)CNC3=O)c1` (stereo not shown) [Compound 45, 4-(2-aminoethyl)-7-(2-chloropyridin-4-yl)-6-(3-methylphenyl)-3,4-dihydropyrrolo[1,2-a]pyrazin-1(2H)-one hydrochloride], for which the half-inhibitory concentration (IC50) worked out at 3170 nM in the assay with MV-4-11 cells, 3960 nM in the assay on BaF3-PIM1 cells, 41 nM at human PIM1 and 102 nM at human PIM2.

Turning to `NCCC1CNC(=O)c2cc(-c3cc(Cl)ccc3F)c(-c3ccsc3)n21` (stereo not shown) [Compound 55, 4-(2-aminoethyl)-7-(5-chloro-2-fluorophenyl)-6-(thiophen-3-yl)-3,4-dihydropyrrolo[1,2-a]pyrazin-1(2H)-one hydrochloride], the IC50 in the assay on MV-4-11 cells stood at 3600 nM; in the assay with BaF3-PIM1 cells, 140 nM; on human PIM1, 17 nM; on human PIM2, 77 nM.

For `NCCC1CNC(=O)c2cc(-c3cc(Cl)ccc3F)c(-c3ccccc3)n21` (stereo not shown) [Compound 57, 4-(2-aminoethyl)-7-(5-chloro-2-fluorophenyl)-6-phenyl-3,4-dihydropyrrolo[1,2-a]pyrazin-1(2H)-one hydrochloride], the IC50 is 2600 nM in the assay on MV-4-11 cells, 239 nM in the assay with BaF3-PIM1 cells, 16 nM at human PIM1 and 32 nM on human PIM2.

Consider `CN1CCN(Cc2ccc(-c3c(-c4cccc(OC(F)(F)F)c4)cc4n3[C@@H](CCCl)CNC4=O)cc2)CC1` [Compound 106, (4S)-4-(2-chloroethyl)-6-{4-[(4-methylpiperazin-1-yl)methyl]phenyl}-7-[3-(trifluoromethoxy)phenyl]-3,4-dihydropyrrolo[1,2-a]pyrazin-1(2H)-one], for which the IC50 with BaF3-PIM1 cells was found to be 210 nM; on human PIM1 it was 27 nM; at human PIM2 it was 99 nM.

`CS(=O)(=O)c1ccc(-c2c(-c3cccc(OC(F)(F)F)c3)cc3n2[C@@H](CCCN)CNC3=O)cc1` [Compound 109, (4S)-4-(3-aminopropyl)-6-[4-(methylsulfonyl)phenyl]-7-[3-(trifluoromethoxy)phenyl]-3,4-dihydropyrrolo[1,2-a]pyrazin-1(2H)-one hydrochloride]: the IC50 in the assay with BaF3-PIM1 cells stood at 6510 nM; on human PIM1, 11 nM; at human PIM2, 82 nM.

Consider `COc1ccc(-c2c(-c3cccc(OC(F)(F)F)c3)cc3n2[C@@H](CCN)CNC3=O)cc1F` [Compound 113, (4S)-4-(2-aminoethyl)-6-(3-fluoro-4-methoxyphenyl)-7-[3-(trifluoromethoxy)phenyl]-3,4-dihydropyrrolo[1,2-a]pyrazin-1(2H)-one hydrochloride], for which the IC50 in the assay on BaF3-PIM1 cells is 53 nM; on human PIM1 it was 23 nM; on human PIM2, 36 nM.

Take `NCC[C@H]1CNC(=O)c2cc(-c3cccc(OC(F)(F)F)c3)c(-c3ccc(C4(N)CC4)cc3)n21` [Compound 130, (4S)-6-[4-(1-aminocyclopropyl)phenyl]-4-(2-aminoethyl)-7-[3-(trifluoromethoxy)phenyl]-3,4-dihydropyrrolo[1,2-a]pyrazin-1(2H)-one hydrochloride]: the IC50 with BaF3-PIM1 cells came to 150 nM; on human PIM1, 1 nM; at human PIM2, 3 nM.

In the case of `CN1CCN(Cc2ccc(-c3c(-c4cccc(OC(F)(F)F)c4)cc4n3[C@@H](CCCN)CNC4=O)cc2)CC1` [Compound 135, (4S)-4-(3-aminopropyl)-6-{4-[(4-methylpiperazin-1-yl)methyl]phenyl}-7-[3-(trifluoromethoxy)phenyl]-3,4-dihydropyrrolo[1,2-a]pyrazin-1(2H)-one dihydrochloride], the IC50 came to 6450 nM in the assay on BaF3-PIM1 cells, 1 nM at human PIM1 and 13 nM on human PIM2.

Regarding `CC(C)[C@H]1CNC(=O)c2cc(-c3cccc(OC(F)(F)F)c3)c(-c3ccc(CN)cc3)n21` [Compound 138, (4S)-6-[4-(aminomethyl)phenyl]-4-(propan-2-yl)-7-[3-(trifluoromethoxy)phenyl]-3,4-dihydropyrrolo[1,2-a]pyrazin-1(2H)-one], the figures for the IC50 in the assay on BaF3-PIM1 cells, on human PIM1 and on human PIM2 were 276 nM, 12 nM and 173 nM, respectively.

Take `Cc1cccc(-c2c(-c3cccc(OC(F)(F)F)c3)cc3n2[C@@H](CCNC(=N)N)CNC3=O)c1` [Compound 148, 1-(2-{(4S)-6-(3-methylphenyl)-1-oxo-7-[3-(trifluoromethoxy)phenyl]-1,2,3,4-tetrahydropyrrolo[1,2-a]pyrazin-4-yl}ethyl)guanidine hydrochloride]: the values for the IC50 with BaF3-PIM1 cells, at human PIM1 and on human PIM2 were 110 nM, 8 nM and 12 nM, respectively.

On to `CS(=O)(=O)c1ccc(-c2c(-c3cccc(OC(F)(F)F)c3)cc3n2[C@@H](CCNC(=N)N)CNC3=O)cc1` [Compound 149, 1-(2-{(4S)-6-[4-(methylsulfonyl)phenyl]-1-oxo-7-[3-(trifluoromethoxy)phenyl]-1,2,3,4-tetrahydropyrrolo[1,2-a]pyrazin-4-yl}ethyl)guanidine hydrochloride], for which the values for the IC50 with BaF3-PIM1 cells, at human PIM1 and at human PIM2 were 1770 nM, 8 nM and 19 nM, respectively.
